The values below come from patent US7538226B2, “(1S,5S)-3-(5,6-dichloro-3-pyridinyl)-3,6-diazabicyclo[3.2.0]heptane” (Abbott Laboratories, priority 2003, dated 2009).

Bounds are passed on as bounds.

Series [1] concerns scopolamine-induced cognitive deficit. Description: Morris water maze, spatial discrimination version, scopolamine-induced cognitive deficit. It is filed as in vivo, rat. To be noted: about 0.001 to about 5 μmol/kg, 30 minutes prior to the test; scopolamine HBr 0.3 mg/kg i.p. On the procedure:
Male, Long-Evans rats, 300-400 g, obtained from Charles River laboratories were used in this study. During two daily habituation sessions, rats are trained to find a visible escape platform in a pool (180 cm diameter and 60 cm high) filled to a depth of 37 cm with water made opaque with powdered milk. Water temperature is maintained at 26° C. On the second day of habituation training, latency to escape measures are obtained in order to assure that animals are assigned to groups without swim speed bias. For spatial discrimination training, two visible platforms, covered in aluminum foil, are present. The platforms remain in the same position (diagonal to each other) through 5 days of training. Only one of the platforms provides escape; the other, made of expanded polystyrene, will not support the animals' weight. Rats receive six trials/day, with start position changed from trial to trial. The number of contacts with the incorrect platform (errors) serves as the dependent variable.
A cognitive deficit, as measured by increased number of errors in the water maze test, is induced by i.p. administration of the muscarinic antagonist scopolamine·HBr (0.3 mg/kg), dosed 15 min prior to each daily discrimination training session (over five days total).

The nature of the next series: Solubility in water. It is filed as physicochemical.

`Clc1cc(N2C[C@@H]3CN[C@@H]3C2)cnc1Cl` [(1S,5S)-3-(5,6-Dichloropyridin-3-yl)-3,6-diaza-bicyclo[3.2.0]heptane]: the “effect on scopolamine-induced cognitive deficit in the water maze” value in series [1] is “reversed the cognitive deficit and normalized the performance of the animals in the water maze”. In general, solubility refers to the concentration that dissolves in the medium under given conditions. Low readings indicate a poorly soluble substance, high ones a readily soluble substance. Compound `CC(=O)O.Clc1cc(N2C[C@@H]3CN[C@@H]3C2)cnc1Cl` [Example 6, (1S,5S)-3-(5,6-Dichloro-pyridin-3-yl)-3,6-diaza-bicyclo[3.2.0]heptane acetate] had a solubility in “Solubility in water” of 13400 µg/mL. In “Solubility in water”, `CS(=O)(=O)O.Clc1cc(N2C[C@@H]3CN[C@@H]3C2)cnc1Cl` [Example 8, (1S,5S)-3-(5,6-Dichloro-pyridin-3-yl)-3,6-diaza-bicyclo[3.2.0]heptane methanesulfonate] registered a solubility of over 50000 µg/mL.

With `Clc1cc(N2C[C@@H]3CN[C@@H]3C2)cnc1Cl.O=C(O)/C=C\C(=O)O` [Example 9, (1S,5S)-3-(5,6-Dichloro-pyridin-3-yl)-3,6-diaza-bicyclo[3.2.0]heptane maleate], in “Solubility in water”, the solubility amounted to 7500 µg/mL. On the same count and under the same terms, next, `Clc1cc(N2C[C@@H]3CN[C@@H]3C2)cnc1Cl.O=C(O)/C=C/C(=O)O` [Example 10, (1S,5S)-3-(5,6-Dichloro-pyridin-3-yl)-3,6-diaza-bicyclo[3.2.0]heptane fumarate]: 2900 µg/mL.
